Assay results reported in patent US20030186943A1, “Substituted gamma-phenyl-delta-lactams and uses related thereto” (Inflazyme Pharmaceuticals Ltd., priority 1998, published 2003).
pIC50: −log10 of the molar value. Several values for one entry are separate records, joined by “and”; a condition that tells them apart may be missing. Equal entries are not always repeated. Where two headings read alike, the source gives them in different places.

Columns and labels:
[1] = test system: TNBS-induced colitis in the rat; experiment: TNBS-induced colitis model of inflammatory bowel disease in the rat;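 further: rat colitis induced by intracolonic TNBS in 50% ethanol, distal colon assessed at sacrifice on day 7, with saline-instilled vehicle-treated rats as controls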
Description: Colitis was induced by intracolonic instillation of the hapten TNBS (60 mg/mL) in 0.5 mL of 50% ethanol. […] An additional group of rats received saline intracolonically in place of TNBS/ethanol and was treated with vehicle at the same times as outlined above. Body weights were recorded at the beginning of the study and at days 2 and 7.
The rats were sacrificed on the 7th day after the induction of colitis and the extent of damage and inflammation was assessed. After the rats were sacrificed, the distal colon was removed and pinned out on a wax platform. The presence or absence of diarrhea was noted, as well as the presence and severity of adhesions between the colon and other organs, and the severity and extent of colonic damage. […] After scoring, a sample of colonic tissue was excised for measurement of myeloperoxidase activity as an index of granulocyte infiltration (see Wallace et al., Gastroenterology 117: in press, 1999; and Morris et al., Gastroenterology 96:795-803, 1989). This tissue sample was 1 cm long (along the axis of the colon) and 5 mm wide and was taken from a region of macroscopically visible damage (or the corresponding region in any rats in which there was no damage). The remainder of the tissue was fixed in neutral buffered formalin and processed by routine methods for subsequent evaluation by light microscopy. In a blinded manner, the sample of colonic tissue from each rat was examined for evidence of mucosal ulceration and inflammation. The percentage of the luminal surface of the section in which ulceration was present was calculated.

[2] = test system: cAMP response element luciferase activity in human U937 monocytic cells; experiment: Potentiation of forskolin-induced CRE-luciferase activity in U937 cells; format: cell-based; settings: U-937, U937 cells co-incubated with 10 μM forskolin, 4 hours, X marks this range
Description: Compounds of the present invention were thereby shown to provide potentiated luciferase expression in U937 cells treated with the adenylyl cyclase activator forskolin.
Human pro-monocytic U937 cells were maintained in RPMI medium containing 10% FCS and 2 mM […]. U937 cells were transiently transfected as described in Biotechniques Vol. 17(6):1058, 1994. Briefly, cells were grown in medium containing serum to a density of 5×10^6 cells/mL and then resuspended in media containing serum at a density of approximately 1×10^7 cells/mL. 400 μL of cells were transferred into the electroporation cuvette containing 10 μg of the reporter vector (PCRE-luc) in a volume of 40 μL H2O. Reporter vector DNA was prepared from DH5α E. coli using the DNA […] free kit (Qiagen) as per manufacturers instructions. U937 cells were clectroporated at room temperature using a BIORAD electroporator. Capacitance was set to 1050 μF and voltage was 280V. The time constant was noted after each electroporation. Cells were then diluted in 4 mL of media and serum and 200 μL of cells were plated per well. Cells were allowed to recover for 16-18 hours. Cells were then treated with a test compound or vehicle in the presence or absence of 10 μM forskolin for 4 hours at 37° C.
The luciferase assay was performed as per manufacturers instructions (Tropix). Briefly, cells were centrifuged for 4 minutes at 1200 rpm and media supernatant was removed. Cell pellets were lysed in 15 μL Lysis buffer (Tropix). Luciferase assay was performed using 10 μL of cell lysate with 10 μL of buffer A and 25 μL buffer B. Luciferase activity was obtained using a luminometer with a 5-second delay followed by a read time of 10 seconds.

[3] = target: T1, cAMP phosphodiesterase 3 from human platelets (Homo sapiens, UniProt Q14432); experiment: Inhibition of cAMP phosphodiesterase 3 from human platelets; format: biochemical; settings: for pIC50 / IC50: PDE3, platelet cell extract, X marks this range; for IC50: read-out: IC50 range (μM) 10-100
T1 construct: from tissue; host or cells: human platelets, cytoplasmic extract
Source text: Compound 12 was screened for activity against 5 of the major classes of mammalian cyclic nucleotide phosphodiesterase (termed PDE 1 through 5). PDE's 1 through 4 utilize cAMP as substrate while PDE 5 uses cGMP. The broad specificity PDE inhibitor 3-isobutyl-1-methylxanthine (IBMX; Sigma; Catalogue No. 17018)) was used as a positive control in all assays. PDE's for the various assays were partially purified from the following cells/tissues; PDE 1 (bovine heart), PDE 2 (human platelets), PDE 3 (human platelets), PDE 4 (human promonocytic U937 cells) and PDE 5 (human platelets).
Platelet cell extracts were prepared as described above for the U937 cells. The PDE3 assay was performed using platelet cell extract as described above for the PDE 4 assay. Platelets contain PDE 2, 3 and 5. However PDE2 and 5 preferentially utilize cGMP, so in an assay with cAMP as a substrate they are not detected.

[4] = test system: primary human neutrophils; experiment: Generation of reactive oxygen species by fMLP-activated neutrophils (luminol-enhanced chemiluminescence); format: cell-based; settings: Neutrophil
Source text: Neutrophil activation can be measured by quantitation of ROS generated in vitro. Measurement of ROS allows specific quantitation of a pro-inflammatory species and is also a general measure of neutrophil activation. The most sensitive method for measuring the production of ROS by neutrophils is luminol-enhanced chemiluminescence. […] The assay system used to evaluate the ability of compounds to inhibit ROS generation in neutrophils is indicative of anti-inflammatory activity that may be efficacious in disease states including but not limited to rheumatoid arthritis and inflammatory bowel disease.
Freshly isolated primary human neutrophils (5×10^6 cells/mL) were incubated with the required concentrations of compound or vehicle for 30 minutes at 37° C. in HBSS buffer (pH 7.4) containing Ca^2+. 100 nM wortmannin was used as a positive control. Aliquots of each sample were transferred to a microtitre plate to which luminol (1 μM); obtained from Sigma; Catalogue No. A8511 is added. Activation of the neutrophils was immediately initiated by addition of (1 μM) fMLP; obtained from Sigma, Catalogue No. F3506. Light output from each well was recorded for 30 minutes in a microplate luminometer. Total light output (integral of the time-course) was determined for each well. Inhibitory activities of test drugs against neutrophil ROS generation is expressed as percentage activity relative to a no drug control (100% activation or generation of ROS) containing 0.25% DMSO. Concentration of test compound required to inhibit the generation of ROS to 50% of control values (IC50's) were determined from concentration-response curves by non-linear regression analysis.

[5] = test system: High Affinity Rolipram Binding Site of PDE4 in Mouse Brain; experiment: Displacement of [3H]-rolipram from its high affinity binding site (HARBS); settings: ratio of IC50 for PDE4 catalytic activity to concentration displacing 50% of rolipram from HARBS
Description: Suspension was centrifuged twice at 30,000×G at 4° C. and the supernatant discarded. The pellet was resuspended in buffer, and adjusted to a protein concentration of 0.5 mg/mL. Drugs to be tested were dissolved in DMSO and pipetted in triplicate into a 96 well microplate at concentrations ranging from 1 to 30,000 nM. […] The plate was incubated at 4° C. for 1 hour. Contents of the plate were aspirated through a Whatman GF/C filterplate, and rinsed with 4×200 μL ice-cold buffer. […] Triplicate determinations were performed at each concentration.

[6] = 100 mg/kg intracolonically at 12 h intervals for one week
[7] = 100 mg/kg intracolonically at 12 h intervals for one week, day 7
[8] = read-out: IC50 RANGE (μM) >100, ROS production, X marks this range
[9] = read-out: EC50 range (μM) 0.1-1
[10] = read-out: IC50 RANGE (μM) <1, ROS production, X marks this range

T1 sequence (Q14432 whole entry): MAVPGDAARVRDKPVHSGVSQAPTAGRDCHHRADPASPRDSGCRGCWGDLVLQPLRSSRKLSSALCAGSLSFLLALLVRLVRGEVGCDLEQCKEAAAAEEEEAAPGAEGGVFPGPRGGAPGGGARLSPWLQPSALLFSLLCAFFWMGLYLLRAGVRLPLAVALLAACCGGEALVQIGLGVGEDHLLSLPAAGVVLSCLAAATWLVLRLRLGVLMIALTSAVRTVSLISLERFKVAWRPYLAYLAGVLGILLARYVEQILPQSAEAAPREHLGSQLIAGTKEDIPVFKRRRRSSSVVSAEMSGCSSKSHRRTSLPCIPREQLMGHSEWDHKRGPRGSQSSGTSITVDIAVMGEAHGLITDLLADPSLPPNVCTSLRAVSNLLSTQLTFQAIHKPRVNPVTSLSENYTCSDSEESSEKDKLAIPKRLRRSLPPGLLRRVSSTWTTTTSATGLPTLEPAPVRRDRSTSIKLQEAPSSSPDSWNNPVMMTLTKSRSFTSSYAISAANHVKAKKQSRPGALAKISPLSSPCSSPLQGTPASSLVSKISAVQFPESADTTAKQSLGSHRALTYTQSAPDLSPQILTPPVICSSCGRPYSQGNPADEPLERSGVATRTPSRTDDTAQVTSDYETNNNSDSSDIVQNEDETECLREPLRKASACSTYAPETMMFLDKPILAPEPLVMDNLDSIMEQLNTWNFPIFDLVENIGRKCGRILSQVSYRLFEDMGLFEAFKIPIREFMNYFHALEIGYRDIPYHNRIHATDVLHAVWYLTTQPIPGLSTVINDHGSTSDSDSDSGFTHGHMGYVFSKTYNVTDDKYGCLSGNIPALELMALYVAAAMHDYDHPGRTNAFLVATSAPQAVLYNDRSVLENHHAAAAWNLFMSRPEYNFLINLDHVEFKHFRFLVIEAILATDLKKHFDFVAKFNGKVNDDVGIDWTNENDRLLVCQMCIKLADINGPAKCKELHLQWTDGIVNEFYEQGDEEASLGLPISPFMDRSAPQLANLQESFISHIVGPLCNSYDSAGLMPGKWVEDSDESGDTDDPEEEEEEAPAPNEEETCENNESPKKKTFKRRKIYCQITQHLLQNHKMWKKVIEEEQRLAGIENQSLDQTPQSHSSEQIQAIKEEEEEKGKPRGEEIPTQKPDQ

EC50 ([2]; read-out: EC50 range (μM) 1-25) [µM] | pIC50 [3] | PDE4:HARBS [5] | Structure (SMILES) | further results
1 to 25 | < 4.00 | <1 | CCCCCCOc1cc([C@@H]2CCC(=O)OC2)ccc1OC [Compound 160] | –
– | < 4.00 | <1 | CCCCCCCOc1cc([C@@H]2CCC(=O)OC2)ccc1OC [Compound 161] | EC50 ([2]; read-out: EC50 range (μM) >25): > 25 µM
– | < 4.00 | – | CCCCCCCCOc1cc([C@@H]2CCC(=O)OC2)ccc1OC [Compound 162] | EC50 ([2]; read-out: EC50 range (μM) >25): > 25 µM
– | – | <1 | COc1ccc([C@H]2COC(=O)C(Cc3cccc(C(F)(F)F)c3)C2)cc1OC1CCCC1 (some centres unmarked) [Compound 169] | –
– | – | <1 | COc1ccc([C@H]2COC(=O)C(Cc3ccc4c(c3)OCO4)C2)cc1OC1CCCC1 (some centres unmarked) [Compound 171] | –
– | – | <1 | COc1ccc([C@H]2COC(=O)C(Cc3cccc(OCc4ccccc4)c3)C2)cc1OC1CCCC1 (some centres unmarked) [Compound 172] | –
– | – | >1 | COc1ccc([C@H]2COC(=O)C(Cc3ccc(C)c([N+](=O)[O-])c3)C2)cc1OC1CCCC1 (some centres unmarked) [Compound 176] | –
– | – | >1 | COc1ccc(CC2C[C@@H](c3ccc(OC)c(OC4CCCC4)c3)COC2=O)cc1O (some centres unmarked) [Compound 180] | –
– | – | <1 | COc1ccc([C@H]2COC(=O)C(Cc3cccc(O)c3)C2)cc1OC1CCCC1 (some centres unmarked) [Compound 182] | –
– | – | <1 | COc1ccc([C@H]2COC(=O)C(Cc3ccc(O)cc3)C2)cc1OC1CCCC1 (some centres unmarked) [Compound 183] | –
– | – | >1 | COc1ccc([C@H]2COC(=O)C(Cc3ccc(N)cc3)C2)cc1OC1CCCC1 (some centres unmarked) [Compound 185] | –
– | – | >1 | COc1ccc(N)cc1CC1C[C@@H](c2ccc(OC)c(OC3CCCC3)c2)COC1=O (some centres unmarked) [Compound 186] | –
– | – | >1 | COc1ccc([C@H]2COC(=O)C(Cc3ccc(C)c(N)c3)C2)cc1OC1CCCC1 (some centres unmarked) [Compound 187] | –

The next lines start with the compound.

Structure (SMILES) | EC50 ([2]; read-out: EC50 range (μM) 1-25) [µM] | pIC50 [3] | PDE4:HARBS [5] | further results
Nc1ccc(O)c(C(=O)O)c1 [Compound 5-ASA, 5-aminosalicylic acid] | – | – | – | Body Weight Change (%) [1, 6]: −20.2 ± 3.4%; Mortality [1, 6]: 0/8; Adhesion (Incidence) [1, 7]: (7/8); Adhesion Score [1, 7]: 1.4 ± 0.3; Bowel Thickness (mm) [1, 7]: 2.66 ± 0.69 mm; Damage Score [1, 7]: 6.3 ± 0.8; Global Colitis Score [1, 7]: 10.41 ± 1.58; loss of body weight ([1]; 100 mg/kg, one-week study): ~20%; MPO Activity (U/mg) ([1]; colonic tissue, 100 mg/kg intracolonically at 12 h intervals for one week, day 7): 67.5 ± 8.8 U/mg; Diarrhea ([1]; incidence, 100 mg/kg intracolonically at 12 h intervals for one week, day 7, 100 mg/kg): significantly reduce and 1/8; Histology Score ([1]; percentage of luminal surface ulcerated, 100 mg/kg intracolonically for one week, day 7): 91.4 ± 5.9
COc1ccc([C@H]2COC(=O)C(Cc3ccc(OCc4ccccc4)c(OC)c3)C2)cc1OC (some centres unmarked) [Compound 22] | 1 to 25 | < 4.00 | <1 | IC50 [4, 8]: > 100 µM
COc1ccc([C@@H]2CCC(=O)NC2)cc1OC [Compound 46] | 1 to 25 | < 4.00 | >1 | IC50 ([4]; ROS production, X marks this range, read-out: IC50 RANGE (μM) 10-100): 10 to 100 µM
COc1ccc([C@@H]2CCC(=O)N(Cc3ccccc3)C2)cc1OC [Compound 47] | 1 to 25 | – | – | IC50 [3]: 10 to 100 µM; IC50 ([4]; ROS production, X marks this range, read-out: IC50 RANGE (μM) 1-10): 1 to 10 µM
COc1ccc([C@@H]2CCC(=O)NC2)cc1OC1CCCC1 [Compound 58] | – | < 4.00 | >1 | EC50 [2, 9]: 0.1 to 1 µM; IC50 [4, 10]: < 1 µM
COc1cc(CC2C[C@@H](c3ccc(OC)c(OC4CCCC4)c3)CNC2=O)ccc1OCc1ccccc1 (some centres unmarked) [Compound 61] | 1 to 25 | – | <1 | IC50 [3]: 10 to 100 µM; IC50 [4, 8]: > 100 µM
COc1ccc([C@H]2COC(=O)C(Cc3ccc(F)c(F)c3)C2)cc1OC (some centres unmarked) [Compound 77] | 1 to 25 | – | – | IC50 [3]: 10 to 100 µM; IC50 [4, 8]: > 100 µM
COc1ccc([C@H]2COC(=O)C(Cc3ccc(OCc4ccccc4)c(OCc4ccccc4)c3)C2)cc1OC (some centres unmarked) [Compound 79] | – | < 4.00 | <1 | EC50 [2, 9]: 0.1 to 1 µM; IC50 [4, 8]: > 100 µM
COc1ccc([C@H]2COC(=O)C(Cc3ccc(O)c(O)c3)C2)cc1OC (some centres unmarked) [Compound 80] | 1 to 25 | – | – | IC50 [3]: 10 to 100 µM; IC50 [4, 10]: < 1 µM
COc1ccc([C@H]2COC(=O)C(Cc3ccc(O)c(N)c3)C2)cc1OC1CCCC1 (some centres unmarked) [Compound 94] | – | < 4.00 | >1 | EC50 [2, 9]: 0.1 to 1 µM; IC50 [4, 10]: < 1 µM
COc1ccc([C@H]2COC(=O)C(C)C2)cc1OC1CCCC1 (some centres unmarked) [Compound 95] | – | < 4.00 | – | –
C=CCC1C[C@@H](c2ccc(OC)c(OC3CCCC3)c2)COC1=O (some centres unmarked) [Compound 96] | – | < 4.00 | – | –
COc1ccc([C@H]2COC(=O)C(Cc3ccc(O)c(N)c3)C2)cc1Cc1ccccc1 (some centres unmarked) [Compound 114] | – | < 4.00 | – | –
COc1ccc([C@H]2COC(=O)C(Cc3cccc(O)c3)C2)cc1OC (some centres unmarked) [Compound 131] | 1 to 25 | < 4.00 | – | IC50 [4, 10]: < 1 µM
COc1ccc(CC2C[C@@H](c3ccc(OC)c(OC)c3)COC2=O)cc1 (some centres unmarked) [Compound 132] | 1 to 25 | – | <1 | IC50 [3]: 10 to 100 µM; IC50 [4, 8]: > 100 µM
COc1ccc([C@H]2COC(=O)C(Cc3ccc(O)cc3)C2)cc1OC (some centres unmarked) [Compound 133] | 1 to 25 | < 4.00 | <1 | IC50 [4, 10]: < 1 µM
COc1ccc([C@H]2COC(=O)C(Cc3ccccc3)C2)cc1OC (some centres unmarked) [Compound 139] | 1 to 25 | < 4.00 | – | IC50 [4, 8]: > 100 µM
CCOc1cc(C2CCC(=O)OC2)ccc1OC (centres unmarked) [Compound 153] | 1 to 25 | – | >1 | IC50 [4, 10]: < 1 µM
CCCOc1cc(C2CCC(=O)OC2)ccc1OC (centres unmarked) [Compound 154] | 1 to 25 | – | >1 | IC50 [4, 10]: < 1 µM
COc1ccc([C@@H]2CCC(=O)OC2)cc1OCC1CCCCC1 [Compound 158] | – | < 4.00 | <1 | EC50 [2, 9]: 0.1 to 1 µM
CCCCCOc1cc([C@@H]2CCC(=O)OC2)ccc1OC [Compound 159] | – | < 4.00 | >1 | EC50 ([2]; read-out: EC50 range (μM) >25): > 25 µM
COc1cc2c(cc1OC)-c1c/c(=N\c3c(C)cc(C)cc3C)n(C)c(=O)n1CC2 [trequinsin, reference compound] | – | – | – | effect in PDE3 assay ([3]; platelet cell extract, cAMP as substrate): potent inhibitor
